We go through three molecules from article PMC9423820, “Melittin-derived peptides exhibit variations in cytotoxicity and antioxidant, anti-inflammatory and allergenic activities” (Animal Cells and Systems, 2022).

Data set [1] can be described thus: ABTS radical scavenging assay. In kind it is biochemical. Also noted: key to Anti-oxidant activity (summary): +, active; -, inactive. The following applies: for antioxidant activity (ABTS radical scavenging), in words: 4 min reaction, absorbance 650 nm, resveratrol as positive control, n = 3; for Anti-oxidant activity (summary): Figure 4B summary, ABTS radical scavenging. How it is done:
The antioxidant activities of melittin and melittin-derived peptides were measured using the 2,2'-azino-bis(3-ethylbenzothiazoline-6-sulfonic acid) (ABTS) radical scavenging assay. ABTS^+ radical solution was prepared by mixing equal volumes of 7 mM ABTS solution with 2.4 mM persulfate solution and allowing them to react in the dark at 25 °C for 24 h. Before this reaction, the ABTS^+ radical solution was diluted with distilled water to obtain an absorbance of 0.7 ± 0.01 units at 650 nm. Melittin and melittin-derived peptides (20 µL each) at various concentrations were then reacted with 80 µL of ABTS^+ radical solution for 4 min in the dark, and absorbance was measured at 650 nm using an EMax Plus microplate reader (Molecular Devices, San Jose, CA, USA). ABTS^+ radical scavenging activity was calculated using the following formula: ABTS+ radical scavenging activity (%) = [1 − (Abssample − Absblank of sample) / Abscontrol] × 100, where Abscontrol is the absorbance of ABTS^+ radical solution diluted in water, Abssample is the absorbance of ABTS^+ radical solution mixed with melittin or melittin-derived peptides, and Absblank of sample is the absorbance of water mixed with melittin or melittin-derived peptides. All experiments were performed in triplicates (n = 3).

For a further data set, the system named is BEAS-2B cells. The data set is described as follows: MTS cell viability assay (CellTiter 96 Aqueous One), BEAS-2B. In kind it is cell-based, human. Also noted: key to Cytotoxicity (summary): +, active; -, inactive. The following applies: 24 h; for Cytotoxicity (summary): Figure 4B summary, MTS assay, BEAS-2B and HeLa cells. From the text:
Human pulmonary bronchial epithelial BEAS-2B, human epithelial cervix carcinoma HeLa, murine macrophage RAW 264.7, and rat basophilic leukemia mast RBL-2H3 cells were purchased from American Type Culture Collection (ATCC, VA, USA). BEAS-2B cells were maintained in bronchial epithelial basal medium (BEBM; Lonza, Basel, Switzerland). HeLa, RAW 264.7, and RBL-2H3 cells were maintained in DMEM supplemented with 10% heat-inactivated fetal bovine serum (Welgene, Gyeongsangbuk-do, Korea) and 1% penicillin and streptomycin (Welgene) at 37 °C in a humidified atmosphere of 5% CO2. Melittin and its derived peptides (Figure 1A) were synthesized by Peptron, Inc. (Daejeon, Korea).
The effect of melittin and melittin-derived peptides on cell viability was evaluated using the CellTiter 96^R Aqueous One Solution Cell Proliferation Assay (Promega, Madison, WI, USA), according to the manufacturer’s instructions (Cambronero-Urena et al. [2021]). BEAS-2B and HeLa cells were seeded (3,000 cells/well) in 96-well plates and incubated for 24 h. Culture medium containing melittin or melittin-derived peptides was added to the plates, and they were incubated for 24 h. Thereafter, 20 μL of MTS reagent was added, and absorbance was measured at 490 nm using a microplate reader (Molecular Devices EMax Plus). The formula used to calculate the cell viability is as follows: Cell viability (%)={(A Sample−A [Blank]) / (A [Control])−A [Blank])}×100, Where A is the absorbance for a given wavelength.
For orientation: Tetrazolium assays rely on reduction of a dye to a coloured formazan, in cell work by metabolically active cells.

In data set [2] the test system is TNF-α, IL-6, IL-1β mRNA expression in RAW 264.7 cells. The data set is described as follows: qRT-PCR of inflammatory cytokine mRNA in LPS-stimulated RAW 264.7 cells. Also noted: key to Anti-inflammatory activity (summary): +, active; -, inactive. The class given is cell-based, murine. The following applies: for Anti-inflammatory activity (summary): Figure 4B summary, LPS-stimulated RAW 264.7 cells. How it is done:
RAW 264.7 cells (1 × 10^5 cells/well) were seeded in 6-well plates and incubated for 24 h (Ahmed et al. [2020]). Next, culture medium with melittin or melittin-derived peptides was added to the plates, and they were incubated for 24 h. Thereafter, lipopolysaccharide (LPS) was added to the medium at a final concentration of 1 μg/mL, followed by incubation for 6 h. The medium was completely removed, the cells were washed with cold PBS and lysed with 1 mL of RiboEx (GeneAll, Korea), and RNA was extracted using a Hybrid-R RNA purification kit (GeneAll). To synthesize cDNA, RNA was quantified using a Nabi UV/Vis nanospectrophotometer (MicroDigital, Korea), and 1 μL of random hexamer (100 pmol/μL) and 1 μL of dNTP mix (10 mM) were added to each RNA sample (1 μg). The total volume was adjusted to 10 μL using DEPC-treated water. The mixture was subjected to heating at 65 °C for 5 min and immediately cooled on ice. Thereafter, 1 μL M-MLV reverse transcriptase (Promega), 4 μL 5X M-MLV RT reaction buffer (Promega), 1 μL RNase inhibitor (Enzynomics, Korea), and 4 μL DEPC-treated water were added to each RNA sample, and the mixture was incubated at 25 °C for 10 min and then at 50 °C for 1 h.
The mRNA expression levels of inflammatory cytokines were analyzed using qRT-PCR. The reaction mixture contained 10 μL of 2X Prime Q-master Mix (GENET BIO, Korea), 1.5 μL of 10 pmol/μL forward primer, 1.5 μL of 10 pmol/μL reverse primer, 5 μL of DEPC-treated water, and 2 μL of cDNA (1/10 dilution); qRT-PCR was performed using AriaMx (Agilent, USA) as per the following conditions: 40 cycles of denaturation at 95 °C for 20 s, annealing at 58 °C for 20 s, and elongation at 72 °C for 20 s. The primers used for the qRT-PCR are listed in Supplementary 1.

Data set [3] deals with IκBα phosphorylation in RAW 264.7 cells. Kind of data set: Immunoblot of phospho-IκBα in LPS-stimulated RAW 264.7 cells. The following applies: RAW 264.7, 24 h pretreatment (melittin 1.25 μM; P1 2.5 μM; P2 indicated concentrations), LPS 1 μg/mL 1 h, n = 3. In kind it is cell-based, murine. How it is done:
RAW 264.7 cells (1 × 10^5 cells/well) were seeded in a 6-well plate and incubated for 24 h. Medium containing melittin or melittin-derived peptides was added, and the plates were incubated for 24 h. Thereafter, LPS was added to the medium at a final concentration of 1 μg/mL, followed by incubation for 1 h. To prepare protein samples, the medium was completely removed by aspiration, and the cells were washed with cold PBS and then lysed with lysis buffer [10 mM Tris-HCl (pH 7.5), 100 mM NaCl, 1 mM EDTA, 1 mM EGTA, 1% Triton X-100, 10% glycerol, and 0.1% SDS] with a protease inhibitor cocktail (Roche, Switzerland). The protein samples were sonicated and centrifuged at 16,000 × g for 10 min. The supernatant was then transferred to a new tube and used for immunoblot analysis. The protein samples were separated using sodium dodecyl sulfate-polyacrylamide gel electrophoresis (SDS-PAGE), and the separated proteins were transferred onto a nitrocellulose membrane (0.45 μm, Merck Millipore, USA). […] The unbound antibodies were washed with PBS-T, and the antibodies bound to the nitrocellulose membrane were detected using the SuperSignal system (SuperSignal; Thermo Fisher Scientific), using horseradish peroxidase-conjugated secondary antibodies (Abcam, Cambridge, UK).

The test system of the next data set is RBL-2H3 cells. Kind of data set: β-Hexosaminidase release (degranulation) assay. In kind it is cell-based, rat. Also noted: key: +, active; -, inactive. Conditions: Figure 4B summary. The method, then:
The β-hexosaminidase release assay was performed as previously described. RBL-2H3 cells (5 × 10^4 cells/well) were seeded in 96-well plates and incubated for 24 h. The medium was removed, and the cells were washed twice with siraganian buffer (119 mM NaCl, 5 mM KCl, 5.6 mM glucose, 0.4 mM MgCl2, 25 mM PIPES, 40 mM NaOH, 1 mM CaCl2, and 0.1% BSA, pH 7.2), and then incubated in 100 μL siraganian buffer supplemented with compound 48/80 (Sigma-Aldrich, St. Louis, MO, USA), melittin, or melittin-derived peptides for 1 h. Compound 48/80 was used as a positive control. The reaction was terminated by incubation at 4 °C for 10 min. The fluorescence of β-hexosaminidase in the supernatant was measured with a β-hexosaminidase activity assay kit (Cell Biolabs, USA) using a 2104 EnVision multilabel plate reader (PerkinElmer, USA) at […]. The relative fluorescence units of β-hexosaminidase release were calculated by subtracting the fluorescence intensity of the control group from that of the experimental group.

Where no end group is shown, it is not given here. Where only a bound is given, the exact number is not on record here.

As to `CC[C@H](C)[C@H](NC(=O)CN)C(=O)NCC(=O)N[C@@H](C)C(=O)N[C@H](C(=O)N[C@@H](CC(C)C)C(=O)N[C@@H](CCCCN)C(=O)N[C@H](C(=O)N[C@@H](CC(C)C)C(=O)N[C@H](C(=O)N[C@H](C(=O)NCC(=O)N[C@@H](CC(C)C)C(=O)N1CCC[C@H]1C(=O)N[C@@H](C)C(=O)N[C@@H](CC(C)C)C(=O)N[C@H](C(=O)N[C@@H](CO)C(=O)N[C@@H](Cc1c[nH]c2ccccc12)C(=O)N[C@H](C(=O)N[C@@H](CCCCN)C(=O)N[C@@H](CCCNC(=N)N)C(=O)N[C@@H](CCCCN)C(=O)N[C@@H](CCCNC(=N)N)C(=O)N[C@@H](CCC(N)=O)C(=O)N[C@@H](CCC(N)=O)C(N)=O)[C@@H](C)CC)[C@@H](C)CC)[C@@H](C)O)[C@@H](C)O)C(C)C)C(C)C` [Melittin], in data set [1], the “antioxidant activity (ABTS radical scavenging), in words” value is “comparable to that of resveratrol” and the “Anti-oxidant activity (summary)” value is on record as “+”. The “cellular activity (cell viability)” value with BEAS-2B cells (BEAS-2B, 2.5 μM, MTS, n = 3) is 75%. Moreover, the “concentration showing strong cytotoxicity” value in the data set on BEAS-2B cells (BEAS-2B, MTS) is ≥ 5 µM. In addition, in the data set on BEAS-2B cells, the “Cytotoxicity (summary)” value is reported as “+”. For the same molecule, the “Anti-inflammatory activity (summary)” value in data set [2] is given as “+”. In addition, the “inhibition of mRNA expression of inflammatory cytokines (TNF-α, IL-6, IL-1β)” value in data set [2] (RAW 264.7, 1.25 μM, 24 h pretreatment, LPS 1 μg/mL 6 h, qRT-PCR, n = 3) is “significant inhibition”. For the same molecule, in data set [3], the “effect on LPS-induced IκBα phosphorylation” value is reported as “decreased slightly”. In the data set on RBL-2H3 cells, the “Allergenic activity (summary)” value was “+”.

Take “P3: melittin-derived peptide composed of C-terminal 11 amino acids (LISWIKRKRQQ; ends and bridges not checked; UniProt P01501 59-69, looked up, fragment)”: the “Anti-oxidant activity (summary)” value in data set [1] is listed as “+”. The “Cytotoxicity (summary)” value in the data set on BEAS-2B cells is listed as “-”. Moreover, in data set [2], the “Anti-inflammatory activity (summary)” value is “-”.

For the molecule “P4: melittin-derived peptide consisting of nine amino acids of the N-terminal of melittin (GIGAVLKVL; Melittin; UniProt P01501 44-52, looked up, fragment)”, in data set [1], the “antioxidant activity (ABTS radical scavenging), in words” value is reported as “did not show antioxidant activity” and the “Anti-oxidant activity (summary)” value is “-”. For the same molecule, in the data set with BEAS-2B cells, the “Cytotoxicity (summary)” value is “-”. Also, the “Anti-inflammatory activity (summary)” value in data set [2] is reported as “-”.
